# Measured values: patent publication US20080070868A1, “Novel Thiazole Inhibitors of Fructose 1,6-bisphosphatase” (Metabasis Therapeutics, Inc., priority 2004, published 2008)
# Molecular target: T1, human NAT1 (Homo sapiens, UniProt P18440)
# T1 construct: purchased BD Gentest (Bedford, Mass.); host or cells: insect cells
# T1 sequence (P18440 1-290): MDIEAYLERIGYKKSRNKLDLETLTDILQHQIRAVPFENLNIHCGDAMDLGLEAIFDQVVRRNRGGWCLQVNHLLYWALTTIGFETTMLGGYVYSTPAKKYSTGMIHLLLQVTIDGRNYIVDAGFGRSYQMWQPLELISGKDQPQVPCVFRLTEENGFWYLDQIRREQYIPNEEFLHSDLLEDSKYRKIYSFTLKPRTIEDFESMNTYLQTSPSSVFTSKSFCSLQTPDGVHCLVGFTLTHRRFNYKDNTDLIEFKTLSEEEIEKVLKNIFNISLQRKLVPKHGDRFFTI
# Test: N-acetylation by recombinant human NAT1
# Assay type: in vitro ADME
# Details: compound 100 μM, 37° C., 120 min, N-acyl product by HPLC
# Description: Insect cell-expressed human NAT1 and NAT2 and control insect cytosol were obtained from BD Gentest (Bedford, Mass.). Compounds (100 μM) were incubated in 0.25 mL of NAT reaction cocktail consisting of 25 mM potassium phosphate pH 7.4 (at 25° C.), 1 mM EDTA, 1 mM DTT, 0.5 mM acetyl CoA, 5 mM acetyl-DL-carnitine, 20 u/mL acetyltransferase and either NAT1, NAT2 or control insect cytosol (0.1 mg/mL). Reactions were performed in an Eppendorf Thermomixer (37° C., 120 min.). At 0 and 120 min., 100 μl of each reaction was removed and added to a clean 1.7 mL tube containing 150 μl of 100% methanol. The tubes were vortexed and centrifuged at 14,000 rpm for 10 min. in an Eppendorf microcentrifuge (room temperature, 5 min., 14,000 rpm). The supernatants were analyzed by HPLC (Agilent 1100 series) using a Phenosphere C18 column (5 micron, 150×4.6 mm). The column was equilibrated with 20 mM potassium phosphate pH 4.5 or pH 6.2 (at 25° C.) and eluted with a linear gradient to 80% acetonitrile. The percent conversion of the compounds was calculated from the following equation: area of N-acyl product divided by (area of compound+area of N-acyl product), multiplied by 100.
row,% Conversion NAT1,Compound
1,0%,"CCC(C)(C)C(=O)c1sc(N)nc1-c1ccc(P(=O)(O)O)o1 [Compound 1.2, {5-[2-amino-5-(2,2-dimethyl-butyryl)thiazol-4-yl]furan-2-yl}phosphonic acid]"
2,4.6%,"CCC(C)(C)Cc1sc(N)nc1-c1ccc(P(=O)(O)O)o1 [Compound 3.3, reference compound]"
3,14.0%,"CC(C)c1sc(N)nc1-c1ccc(P(=O)(O)O)o1 [Compound 3.4, reference compound]"
4,14.2%,"CCC(C)Cc1sc(N)nc1-c1ccc(P(=O)(O)O)o1 (stereo not shown) [Compound 3.5, reference compound]"
5,22.3%,"Nc1nc(-c2ccc(P(=O)(O)O)o2)c(CC2CCCC2)s1 [Compound 3.2, reference compound]"

# Same assay, conditions: human recombinant NAT1
row,"susceptibility to N-acetylation by NAT1, in words",Compound
1,not metabolized,"CCC(C)(C)C(=O)c1sc(N)nc1-c1ccc(P(=O)(O)O)o1 [Compound 1.2, {5-[2-amino-5-(2,2-dimethyl-butyryl)thiazol-4-yl]furan-2-yl}phosphonic acid]"

# Molecular target: T2, human liver FBPase (Homo sapiens, UniProt P09467)
# T2 construct: made in house; host or cells: E. coli BL21
# T2 sequence (P09467 2-338 limits assumed): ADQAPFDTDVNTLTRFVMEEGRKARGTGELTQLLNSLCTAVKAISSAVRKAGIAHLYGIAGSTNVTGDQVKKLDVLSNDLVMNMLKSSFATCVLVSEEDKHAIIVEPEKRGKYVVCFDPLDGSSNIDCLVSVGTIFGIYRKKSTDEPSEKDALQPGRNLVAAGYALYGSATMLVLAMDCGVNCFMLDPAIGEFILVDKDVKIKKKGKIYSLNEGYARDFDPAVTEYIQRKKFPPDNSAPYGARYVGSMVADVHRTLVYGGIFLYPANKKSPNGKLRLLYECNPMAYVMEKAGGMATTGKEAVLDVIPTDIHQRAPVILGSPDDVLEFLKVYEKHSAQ
# Test: Inhibition of human liver FBPase
# Assay type: biochemical
# Details: N-acetyl-1.1 relative to 1.1
# Description: E. coli strain BL21 transformed with a human liver FBPase-encoding plasmid was obtained from Dr. M. R. El-Maghrabi at the State University of New York at Stony Brook. […] Enzymatic activity was measured spectrophotometrically in reactions that coupled the formation of product (fructose 6-phosphate) to the reduction of dimethylthiazoldiphenyltetrazolium bromide (MTT) via NADP^+ and phenazine methosulfate (PMS), using phosphoglucose isomerase and glucose 6-phosphate dehydrogenase as the coupling enzymes. Reaction mixtures (200 μl) were made up in 96-well microtitre plates, and consisted of 50 mM Tris-HCl, pH 7.4, 100 mM KCl, 5 mM EGTA, 2 mM MgCl2, 0.2 mM NADP, 1 mg/ml BSA, 1 mM MTT, 0.6 mM PMS, 1 unit/ml phosphoglucose isomerase, 2 units/ml glucose 6-phosphate dehydrogenase, and 0.150 mM substrate (fructose 1,6-bisphosphate). Inhibitor concentrations were varied from 0.01 μM to 10 μM. Reactions were started by the addition of 0.002 units of pure hlFBPase, and were monitored for 7 min. at 590 nm in a Molecular Devices Plate Reader (37° C.).
row,rightward shift in potency in the FBPase assay on N-acetylation,Compound
1,74.5 fold,"CC(=O)Nc1nc(-c2ccc(P(=O)(O)O)o2)c(C(=O)C(C)(C)C)s1 [N-acetyl-1.1, reference compound]"

# Same assay, conditions: purified recombinant human liver FBPase, 0.150 mM fructose 1,6-bisphosphate, 37° C.; read-out: IC50 (hlFBPase)
row,Compound,IC50
1,"CCC(CC)C(=O)c1sc(N)nc1-c1ccc(P(=O)(O)O)o1 [Compound 1.23, [5-(2-amino-5-(2-ethylbutyryl)thiazol-4-yl)furan-2-yl]-phosphonic acid]",0.009 µM
2,"Nc1nc(-c2ccc(P(=O)(O)O)o2)c(C(=O)c2cccc(C(F)(F)F)c2)s1 [Compound 1.26, [5-(2-amino-5-(3-trifluoromethylbenzoyl)thiazol-4-yl)-furan-2-yl]phosphonic acid]",0.119 µM
3,"CCC(C)C(=O)c1sc(N)nc1-c1ccc(P(=O)(O)O)o1 (stereo not shown) [Compound 1.33, [5-(2-amino-5-(2-methylbutyryl)thiazol-4-yl)furan-2-yl]-phosphonic acid]",0.011 µM
4,"CC(=O)Nc1nc(-c2ccc(P(=O)(O)O)o2)c(C(=O)C(C)(C)C)s1 [N-acetyl-1.1, reference compound]",2.31 µM
5,"Nc1nc(-c2ccc(P(=O)(O)O)o2)c(C(=O)c2ccc3ccccc3c2)s1 [Compound 1.29, [5-(2-amino-5-(2-naphthylcarbonyl)thiazol-4-yl)furan-2-yl]-phosphonic acid]",0.06 µM
6,"Nc1nc(-c2ccc(P(=O)(O)O)o2)c(C(=O)c2ccc(-c3ccccc3)cc2)s1 [Compound 1.28, [5-(2-amino-5-(4-phenylbenzoyl)thiazol-4-yl)furan-2-yl]-phosphonic acid]",0.057 µM
7,"COc1cccc(C(=O)c2sc(N)nc2-c2ccc(P(=O)(O)O)o2)c1 [Compound 1.18, [5-(2-amino-5-(3-methoxybenzoyl)thiazol-4-yl)furan-2-yl]-phosphonic acid]",0.085 µM
8,"Nc1nc(-c2ccc(P(=O)(O)O)o2)c(C(=O)c2ccc(C(F)(F)F)cc2)s1 [Compound 1.24, [5-(2-amino-5-(4-trifluoromethylbenzoyl)thiazol-4-yl)-furan-2-yl]phosphonic acid]",0.099 µM
9,"COc1ccc(C(=O)c2sc(N)nc2-c2ccc(P(=O)(O)O)o2)cc1 [Compound 1.16, [5-(2-amino-5-(4-methoxybenzoyl)thiazol-4-yl)furan-2-yl]-phosphonic acid]",0.061 µM
10,"Nc1nc(-c2ccc(P(=O)(O)O)o2)c(C(=O)C2CCC2)s1 [Compound 1.34, [5-(2-amino-5-cyclobutylcarbonylthiazol-4-yl)furan-2-yl]-phosphonic acid]",0.016 µM

# Other lines, results leading:
row,IC50,Compound
1,1 µM,"Nc1ncnc2c1ncn2[C@@H]1O[C@H](COP(=O)(O)O)[C@@H](O)[C@H]1O [AMP, reference compound]"
2,0.118 µM,"COc1ccccc1C(=O)c1sc(N)nc1-c1ccc(P(=O)(O)O)o1 [Compound 1.14, [5-(2-amino-5-(2-methoxybenzoyl)thiazol-4-yl)furan-2-yl]-phosphonic acid]"
3,0.111 µM,"Nc1nc(-c2ccc(P(=O)(O)O)o2)c(C(=O)c2ccccc2C(F)(F)F)s1 [Compound 1.27, [5-(2-amino-5-(2-trifluoromethylbenzoyl)thiazol-4-yl)-furan-2-yl]phosphonic acid]"
4,0.105 µM,"CN(C)c1ccc(C(=O)c2sc(N)nc2-c2ccc(P(=O)(O)O)o2)cc1 [Compound 1.32, [5-(2-amino-5-(4-(N,N-dimethylamino)benzoyl)thiazol-4-yl)-furan-2-yl]phosphonic acid]"
5,0.095 µM,"Nc1nc(-c2ccc(P(=O)(O)O)o2)c(C(=O)c2ccc(N3CCOCC3)c(Cl)c2)s1 [Compound 1.25, [5-(2-amino-5-(3-chloro-4-(1-morpholinyl)benzoyl)-thiazol-4-yl)furan-2-yl]phosphonic acid]"
6,0.094 µM,"COc1ccc(C(=O)c2sc(N)nc2-c2ccc(P(=O)(O)O)o2)cc1OC [Compound 1.17, [5-(2-amino-5-(3,4-dimethoxybenzoyl)thiazol-4-yl)furan-2-yl]-phosphonic acid]"
7,0.086 µM,"Nc1nc(-c2ccc(P(=O)(O)O)o2)c(C(=O)c2ccc(Cl)cc2)s1 [Compound 1.9, [5-(2-amino-5-(4-chlorobenzoyl)thiazol-4-yl)furan-2-yl]-phosphonic acid]"
8,0.073 µM,"Nc1nc(-c2ccc(P(=O)(O)O)o2)c(C(=O)c2ccc(N3CCCCC3)cc2)s1 [Compound 1.31, [5-(2-amino-5-(4-piperidinylbenzoyl)thiazol-4-yl)furan-2-yl]-phosphonic acid]"
9,0.073 µM,"Nc1nc(-c2ccc(P(=O)(O)O)o2)c(C(=O)c2cccc(Cl)c2)s1 [Compound 1.12, [5-(2-amino-5-(3-chlorobenzoyl)thiazol-4-yl)furan-2-yl]-phosphonic acid]"
10,0.054 µM,"Nc1nc(-c2ccc(P(=O)(O)O)o2)c(C(=O)c2ccc(N3CCCC3)c(Cl)c2)s1 [Compound 1.21, [5-(2-amino-5-(3-chloro-4-(1-pyrrolidinyl)benzoyl)-thiazol-4-yl)furan-2-yl]-phosphonic acid]"
11,0.053 µM,"Nc1nc(-c2ccc(P(=O)(O)O)o2)c(C(=O)c2ccc3c(c2)OCO3)s1 [Compound 1.19, [5-(2-amino-5-(3,4-methylenedioxybenzoyl)thiazol-4-yl)-furan-2-yl]phosphonic acid]"
12,0.048 µM,"Cc1ccc(C(=O)c2sc(N)nc2-c2ccc(P(=O)(O)O)o2)cc1 [Compound 1.10, [5-(2-amino-5-(4-methylbenzoyl)thiazol-4-yl)furan-2-yl]-phosphonic acid]"
13,0.048 µM,"Cc1ccccc1C(=O)c1sc(N)nc1-c1ccc(P(=O)(O)O)o1 [Compound 1.13, [5-(2-amino-5-(2-methylbenzoyl)thiazol-4-yl)furan-2-yl]-phosphonic acid]"
14,0.041 µM,"Nc1nc(-c2ccc(P(=O)(O)O)o2)c(C(=O)c2cccs2)s1 [Compound 1.7, [5-(2-amino-5-(2-thienylcarbonyl)thiazol-4-yl)furan-2-yl]-phosphonic acid]"
15,0.04 µM,"Nc1nc(-c2ccc(P(=O)(O)O)o2)c(C(=O)C2CCCCC2)s1 [Compound 1.6, [5-(2-amino-5-cyclohexylcarbonyl-thiazol-4-yl)furan-2-yl]-phosphonic acid]"
16,0.037 µM,"Nc1nc(-c2ccc(P(=O)(O)O)o2)c(C(=O)c2cccc(F)c2)s1 [Compound 1.8, [5-(2-amino-5-(3-fluorobenzoyl)thiazol-4-yl)furan-2-yl]-phosphonic acid]"
17,0.036 µM,"Cc1cccc(C(=O)c2sc(N)nc2-c2ccc(P(=O)(O)O)o2)c1 [Compound 1.11, [5-(2-amino-5-(3-methylbenzoyl)thiazol-4-yl)furan-2-yl]-phosphonic acid]"
18,0.033 µM,"Nc1nc(-c2ccc(P(=O)(O)O)o2)c(C(=O)c2ccc(F)cc2)s1 [Compound 1.22, [5-(2-amino-5-(4-fluorobenzoyl)thiazol-4-yl)furan-2-yl]-phosphonic acid]"
19,0.025 µM,"CCC(C)(C)C(=O)c1sc(N)nc1-c1ccc(P(=O)(O)O)o1 [Compound 1.2, {5-[2-amino-5-(2,2-dimethyl-butyryl)thiazol-4-yl]furan-2-yl}phosphonic acid]"
20,0.014 µM,"Nc1nc(-c2ccc(P(=O)(O)O)o2)c(C(=O)C2CCCC2)s1 [Compound 1.30, [5-(2-amino-5-cyclopentylcarbonylthiazol-4-yl)furan-2-yl]-phosphonic acid]"
